Molecules are shown by their SMILES.

Test [1] in a line: Binding affinity to influenza A/Beijing/262/95 H1N1 neuraminidase expressed in baculovirus expression system using sialyl-lactose as substrate.
Test [2] is described as follows: Inhibition of Influenza A virus (A/Guangdong/03/2009(H1N1)) neuraminidase using 4-MUNANA as substrate preincubated for 1 hr followed by substrate addition and measured after 1 hr by fluorescence assay.
Test [3] is described as follows: Inhibition of Influenza A virus (A/Guangdong/05/2009(H1N1)) neuraminidase using 4-MUNANA as substrate preincubated for 1 hr followed by substrate addition and measured after 1 hr by fluorescence assay.
The nature of test [4]: Inhibition of Influenza A virus (A/GuangdongSB/01/2009(H1N1)) neuraminidase using 4-MUNANA as substrate preincubated for 1 hr followed by substrate addition and measured after 1 hr by fluorescence assay.

`Nc1c(S(=O)(=O)O)cc(Nc2ccc(Nc3nc(Cl)nc(Nc4ccccc4S(=O)(=O)O)n3)c(S(=O)(=O)O)c2)c2c1C(=O)c1ccccc1C2=O`: in test [1], the Ki turned out to be 2.9 µM.

With `C/C=C/Oc1cc(C=O)ccc1O`, the IC50 in test [2] worked out at 28 µM; in test [3], 25 µM; in test [4], 27 µM. In the case of `O=S(=O)(O)c1ccccc1Nc1nc(Cl)nc(Nc2ccccc2S(=O)(=O)O)n1`, affinity in test [1] was put at a Ki of 0.28 µM.

Regarding `O=S(=O)(O)c1cccc(Nc2nc(Cl)nc(Nc3cccc(S(=O)(=O)O)c3)n2)c1`, in test [1], the Ki came out at 0.13 µM.

What is called Ki is the dissociation constant of the complex between target and ligand, obtained from inhibition or displacement. A lower Ki goes with higher affinity. In general, IC50 refers to the point on the concentration scale where inhibition reaches its midpoint. Higher therefore signals lower potency.

The record behind these values is BindingDB's records for PubMed 35367706 (University of Newcastle, 2022).
